US20240148625A1, “Estolide Esters For The Cosmetic Treatment Of Skin” (CLARIANT INTERNATIONAL LTD, priority 2020, published 2024)

Experiments:
[1] = Pigment dispersion: particle size by Grindometer; type: physicochemical; details: 65% emollient with 35% yellow iron oxide, next day, average of 3
Excerpt: Mixtures of 65% emollient with 35% pigment (yellow iron oxide) were homogenized and analyzed*. [table]

[2] = Pigment wetting: viscosity difference rate of pigment dispersion; type: physicochemical; details: 65% emollient with 35% red iron oxide; rheometer 20.0° C., 10.0 1/s; lower = better pigment wetting
Excerpt: The viscosity of a pigment dispersion in oil is negatively correlated to the dispersion efficacy of the carrier liquid emollient. Therefore, decreased viscosities confirm the homogeneity of the dispersion. To calculate the viscosity difference rate between the pure emollient without added pigment and the pigment dispersion, the following formula will be used: Viscosity difference rate=(viscosity value after pigment dispersion−viscosity value before pigment dispersion)/(viscosity value before pigment dispersion) The lower the viscosity difference rate the better the pigment wetting. Mixtures of 65% emollient with 35% pigment (red iron oxide) were homogenized and analyzed*. [table]

Average particle size [1]: 31 μm | Viscosity difference rate [2]: 21
Substance: Pentaerythrityl Tetraisostearate
